Where two headings read alike, the source gives them in different places.
How the values were obtained:
Assay type in all cases: physicochemical
[1] = LNP size and polydispersity index (PDI) by dynamic light scattering (DLS)
[2] = Encapsulation efficiency (EE %) by fluorescence based Ribogreen assay
[3] = LNP Zeta potential measured using a Zetasizer (Malvern); settings: for Zeta potential: hEPO mRNA, N:P 6
[4] = Table 5, LNP 50:10:38.5:1.5 mol %, hEPO mRNA, N:P 6
[5] = Table 5, LNP Lipid:DSPC:Cholesterol:DMG-PEG2k 50:10:38.5:1.5 mol %, hEPO mRNA, N:P 6
[6] = Table 5, LNP 50:10:38.5:1.5 mol %
[7] = Table 8, LNP 50:10:38.5:1.5 mol %, hEPO mRNA, N:P 6
[8] = Table 8, LNP Lipid:DSPC:Cholesterol:DMG-PEG2k 50:10:38.5:1.5 mol %, hEPO mRNA, N:P 6
[9] = Table 8, LNP 50:10:38.5:1.5 mol %
[10] = Table 1, LNP lipid:DSPC:Cholesterol:DMG-PEG2k 50:10:38.5:1.5 mol %, hEPO mRNA, N:P 6
[11] = Table 1, LNP lipid:DSPC:Cholesterol:DMG-PEG2k 50:10:38.5:1.5 mol %
[12] = Table 9, LNP 50:10:38.5:1.5 mol %, hEPO mRNA, N:P 6
[13] = Table 11, LNP with hEPO mRNA, Lipid:DSPC:Cholesterol:DMG-PEG2k 50:10:38.5:1.5 mol % (ALC-0315: 46.3:9.4:42.7:1.6), N:P ratio 6, HEPES/sodium chloride/sucrose buffer, stored at −80C
[14] = Table 6, LNP 50:10:38.5:1.5 mol %, hEPO mRNA, N:P 6
[15] = Table 6, LNP 60:0:38.5:1.5 mol %, hEPO mRNA, N:P 6
[16] = Table 5, LNP 60:0:38.5:1.5 mol %, hEPO mRNA, N:P 6

SMILES: CCCCCCCCCCCCC(CC)C(=O)OCCN(CCOC(=O)C(CC)CCCCCCCCCCCC)C(=O)C(C)N (stereo not drawn) [Compound 613]
- PDI [1, 4]: 0.236
- Size [1, 5]: 53.7 nm
- Encapsulation Efficiency % [2, 4]: 99.8%
- Zeta potential [3, 6]: −6.511 mV

SMILES: CCCCCC(CCCCC)C(=O)OCCN(CCOC(=O)C(CCCCC)CCCCC)C(=O)CN [Compound 601]
- PDI [1, 4]: 0.185
- Size [1, 5]: 83.8 nm
- Encapsulation Efficiency % [2, 4]: 99.8%
- Zeta potential [3, 6]: −4.878 mV

SMILES: CCCCCCCCC(CCCCCC)C(=O)OCCN(CCOC(=O)C(CCCCCC)CCCCCCCC)C(=O)CCCN(CC)CCC.Cl (stereo not drawn) [Compound 980]
- PDI [1, 7]: 0.159
- Size [1, 8]: 90.1 nm
- Encapsulation Efficiency % [2, 7]: 94.9%
- Zeta potential [3, 9]: −18.1 mV

SMILES: CCCCCCCCCC(=O)OCCN(CCOC(=O)CCCCCCCCC)C(=O)C(N)CCCCN (stereo not drawn) [Compound 122]
- PDI [1, 10]: 0.259
- Size [1, 10]: 71.8 nm
- Encapsulation Efficiency % [2, 10]: 94.2%
- Zeta potential [3, 11]: 6.541 mV

SMILES: CCCCCCCCC(CCCCCC)C(=O)OCCN(CCOC(=O)C(CCCCCC)CCCCCCCC)C(=O)CN(C)CCC.Cl (stereo not drawn) [Compound 969]
- PDI [1, 12]: 0.15
- Size ([1]; Table 9, LNP Lipid:DSPC:Cholesterol:DMG-PEG2k 50:10:38.5:1.5 mol %, hEPO mRNA, N:P 6): 70 nm
- Encapsulation Efficiency % [2, 12]: 99.4%
- Zeta potential ([3]; Table 9, LNP 50:10:38.5:1.5 mol %): −28.83 mV

SMILES: CCCCCCCCC(CCCCCC)C(=O)OCCN(CCOC(=O)C(CCCCCC)CCCCCCCC)C(=O)C(C)CNCC.Cl (stereo not drawn) [Compound 925]
- PDI [1, 7]: 0.146
- Size [1, 8]: 79.6 nm
- Encapsulation Efficiency % [2, 7]: 99.9%
- Zeta potential [3, 9]: −6.1 mV

SMILES: CCCCCCCCCCCC(=O)OCCN(CCOC(=O)CCCCCCCCCCC)C(=O)C(N)CO (stereo not drawn) [Compound 134]
- PDI [1, 10]: 0.321
- Size [1, 10]: 87.1 nm
- Encapsulation Efficiency % [2, 10]: 90.5%
- Zeta potential [3, 11]: 6.281 mV

SMILES: CCCCCCCCC(CCCCCC)C(=O)OCCN(CCOC(=O)C(CCCCCC)CCCCCCCC)C(=O)C(C)CCN1CCCCC1.Cl (stereo not drawn) [Compound 987m]
- PDI [1, 13]: 0.076
- Size (nm) [1, 13]: 73.7 nm
- Encapsulation Efficiency % [2, 13]: 94.9%
- Zeta potential (mV) [3, 13]: −5.1 mV

SMILES: CCCCCCCCCCCC(=O)OCCN(CCOC(=O)CCCCCCCCCCC)C(=O)C(N)Cc1ccccc1 (stereo not drawn) [Compound 115]
- PDI [1, 10]: 0.291
- Size [1, 10]: 70.8 nm
- Encapsulation Efficiency % [2, 10]: 89.5%
- Zeta potential [3, 11]: −2.403 mV

SMILES: CCCCCCCCC(CCCCCC)C(=O)OCCN(CCOC(=O)C(CCCCCC)CCCCCCCC)C(=O)CCN (stereo not drawn) [Compound 801]
- PDI [1, 14]: 0.436
- PDI [1, 15]: 0.169
- Size [1, 15]: 93.6 nm
- Size ([1]; Table 6, LNP lipid:DSPC:Cholesterol:DMG-PEG2k 50:10:38.5:1.5 mol %, hEPO mRNA, N:P 6): 105.8 nm
- Encapsulation Efficiency % [2, 14]: 98.5%
- Encapsulation Efficiency % [2, 15]: 98.4%
- Zeta potential ([3]; Table 6, LNP 50:10:38.5:1.5 mol %): −1.5 mV
- Zeta potential ([3]; Table 6, LNP 60:0:38.5:1.5 mol %): 1.6 mV

SMILES: CCCCCCCCCCCCC(CC)C(=O)OCCN(CCOC(=O)C(CC)CCCCCCCCCCCC)C(=O)CN (stereo not drawn) [Compound 606]
- PDI [1, 4]: 0.457
- Size [1, 5]: 57.2 nm
- Encapsulation Efficiency % [2, 4]: 99.9%
- Zeta potential [3, 6]: −2.662 mV

SMILES: CCCCCCCCC(CCCCCC)C(=O)OCCN(CCOC(=O)C(CCCCCC)CCCCCCCC)C(=O)C(N)CO (stereo not drawn) [Compound 130]
- PDI [1, 10]: 0.146
- Size [1, 10]: 74.2 nm
- Encapsulation Efficiency % [2, 10]: 95.1%
- Zeta potential [3, 11]: −5.059 mV

SMILES: CCCCCCCC(CCCCCCC)C(=O)OCCN(CCOC(=O)C(CCCCCCC)CCCCCCC)C(=O)C(C)N (stereo not drawn) [Compound 611]
- PDI [1, 4]: 0.24
- PDI [1, 16]: 0.244
- Size [1, 16]: 55.6 nm
- Size [1, 5]: 155.4 nm
- Encapsulation Efficiency % [2, 4]: 99.3%
- Encapsulation Efficiency % [2, 16]: 98.4%
- Zeta potential [3, 6]: −5.841 mV
- Zeta potential ([3]; Table 5, LNP 60:0:38.5:1.5 mol %): −5.555 mV

SMILES: CCCCCCCCC(CCCCCC)C(=O)OCCN(CCOC(=O)C(CCCCCC)CCCCCCCC)C(=O)CN(C)C (stereo not drawn) [Compound 961]
- Encapsulation Efficiency % [2]: 99.8%

SMILES: CCCCCCCCC(CCCCCC)C(=O)OCCN(CCOC(=O)C(CCCCCC)CCCCCCCC)C(=O)CCCN(C)CCO.Cl (stereo not drawn) [Compound 986]
- PDI [1, 7]: 0.088
- Size [1, 8]: 112.9 nm
- Encapsulation Efficiency % [2, 7]: 99.9%
- Zeta potential [3, 9]: −8.2 mV

SMILES: CCCCCCCCC(CCCCCC)C(=O)OCCN(CCOC(=O)C(CCCCCC)CCCCCCCC)C(=O)CCCN(C)CC.Cl (stereo not drawn) [Compound 936]
- PDI [1, 7]: 0.175
- Size [1, 8]: 110.1 nm
- Encapsulation Efficiency % [2, 7]: 99.9%
- Zeta potential [3, 9]: −10.7 mV

Reference: US20250268826A1, “IONIZABLE LIPIDOID COMPOSITIONS AND THERAPEUTIC USES THEREOF” (Flagship Pioneering Innovations VII, LLC, priority 2023, published 2025)
